Measured values from patent publication US6733985B1, “Preparation of stable liquid and dried synthetic prothrombin time reagents” (International Technidyne Corporation, priority 1999, dated 2004).
Where a SMILES comes first, the peptide text is derived from it.

B1: recombinant tissue factor: recombinant tissue factor based PT reagent, named in b17 as comparison for sensitivity (protein, UniProt P13726 33-295, looked up)
Tissue factor: SGTTNTVAAYNLTWKSTNFKTILEWEPKPVNQVYTVQISTKSGDWKSKCFYTTDTECDLTDEIVKDVKQTYLARVFSYPAGNVESTGSAGEPLYENSPEFTPYLETNLGQPTIQSFEQVGTKVNVTVEDERTLVRRNNTFLSLRDVFGKDLIYTLYYWKSSSSGKKTAKTNTNEFLIDVDKGENYCFSVQAVIPSRTVNRKSTDSPVECMGQEKGEFREIFYIIGAVVFVVIILVIILAISLHKCRKAGVGQSWKENSPLNVS
modifications: PT reagent
notes: recombinant tissue factor based PT reagent, named in b17 as comparison for sensitivity

How the values were obtained:
[1] = tested on: Level I (normal control) and Level III (abnormal control) control plasma; test: traditional prothrombin time test method using a Fibrometer; details: amino acid stabilizer compound formulated into PT reagent (summary of Examples 1 to 13)
Description: The concentration of the dissolved phospholipids was 12.76 mM. […] Additional bovine serum albumin was added to a concentration of 4.8 mg/ml. […] The dialyzed lipidated tissue factor, was then drained from the dialysis bag. […] The formulated material was frozen at −70° C., and then thawed. The thawed formulated material was incubated at 25 and 37° C. for 4 weeks, The reagent was taken out from the incubation at weekly intervals and subjected to coagulation assay by traditional prothrombin time test method using a Fibrometer. The control plasma samples used for the assay were Level I (normal control) and Level III (abnormal control) of Ortho Diagnostics Corporation. […] The Level III abnormal control plasma contains a reduced amount of coagulation factors representing the plasma of patients.

[2] = tested on: Control Level I or Level III plasma samples; test: clotting assay of air-dried reagent in cuvets for Protime instrument; type: biochemical; details: Example 11 lipidated tissue factor in 14 mM Hepes, 4% sorbitol, 1% β-alanine, with 1% polymeric carbohydrate or none
Description: The formulated material was air-dried at 20° C. and 5% relative humidity in cuvets for Protime instrument (a product of International Technidyne Corporation, Edison, N.J.). The produced cuvets with reagent were incubated at 25, 37 and 45° C. for stability studies. At given time intervals, the cuvets were taken out of the incubators and assayed for their clotting activities. Freshly withdrawn blood, Control Level I or Level III plasma samples were added to the cuvets with the dried reagent for assay. Calcium chloride, 8.3 mM, was added to the control plasmas and loaded on the cuvet immediately for assay. In this assay system, reconstitution of the dried reagent is done with plasma or blood, without using water, which is different from Fibrometer assay system. Thence, the kinetics involved in these two systems are different, as well as the clotting times. Whole blood contains a considerable amount of red blood cells and other blood components and its clotting activity is different from that of plasma. For comparison, the clotting time with freshly withdrawn whole blood at day zero was 22.8 seconds.
As shown in the results, γ-Cyclodextrin is a useful homogeneous polymeric carbohydrate to adjust the sensitivity of the synthetic PT reagent.

[3] = tested on: Level III and Level I plasma; details: prior art comparison; cited from earlier work

Molecule | Level III/I ratio test results [1] | further results
N=C(N)NCCC[C@H](N)C(=O)O [Arginine] | Unsatis- | –
N[C@@H](CC(=O)O)C(=O)O [Aspartic acid] | Unsatis- | –
NCCC(=O)O [Beta alanine] | Satisfac- | –
NCCCCC(=O)O [Delta aminovaleric acid] | Satisfac- | –
NCCCC(=O)O [Gamma aminobutyric acid] | Satisfac- | –
NCC(=O)NCC(=O)O [Glycylglycine] (H-Gly-Gly-OH) | Unsatis- | –
OC[C@H]1O[C@@H]2O[C@H]3[C@H](O)[C@@H](O)[C@@H](O[C@H]4[C@H](O)[C@@H](O)[C@@H](O[C@H]5[C@H](O)[C@@H](O)[C@@H](O[C@H]6[C@H](O)[C@@H](O)[C@@H](O[C@H]7[C@H](O)[C@@H](O)[C@@H](O[C@H]8[C@H](O)[C@@H](O)[C@@H](O[C@H]9[C@H](O)[C@@H](O)[C@@H](O[C@H]1[C@H](O)[C@H]2O)O[C@@H]9CO)O[C@@H]8CO)O[C@@H]7CO)O[C@@H]6CO)O[C@@H]5CO)O[C@@H]4CO)O[C@@H]3CO [γ-Cyclodextrin] | – | Clotting Times, Level I [2]: 17.6 s; Clotting Times, Level III [2]: 81.8 s; III/I Ratio [2]: 4.7
NCCCCCC(=O)O [ε-aminocaproic acid] | Unsatis- | –
B1 | – | Level III/I sensitivity [3]: 4.0
